Source: US20250230193A1, “CYCLIC COMPOUND HAVING SELECTIVE KRAS INHIBITORY EFFECT ON HRAS AND NRAS” (CHUGAI SEIYAKU KABUSHIKI KAISHA, priority 2022, published 2025)

Legend:
[1] = molecular target: GDP-bound NRAS wild-type protein (Homo sapiens, UniProt P01111); assay: Binding to NRAS by surface plasmon resonance (SPR), Single Cycle Kinetics; details: SPR, GDP-bound NRAS wild-type vs GDP-bound KRAS wild-type
[2] = molecular target: GDP-bound HRAS wild-type protein (Homo sapiens, UniProt P01112); assay: Binding to HRAS by surface plasmon resonance (SPR), Single Cycle Kinetics; details: SPR, GDP-bound HRAS wild-type vs GDP-bound KRAS wild-type
GDP-bound HRAS wild-type protein, sequence (P01112 whole entry): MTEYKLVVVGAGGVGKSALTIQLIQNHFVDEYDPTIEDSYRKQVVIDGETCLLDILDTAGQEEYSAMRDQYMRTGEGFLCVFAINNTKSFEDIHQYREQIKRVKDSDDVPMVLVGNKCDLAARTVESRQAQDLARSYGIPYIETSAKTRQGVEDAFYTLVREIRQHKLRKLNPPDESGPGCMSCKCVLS

GDP-bound NRAS wild-type protein, sequence (P01111 whole entry): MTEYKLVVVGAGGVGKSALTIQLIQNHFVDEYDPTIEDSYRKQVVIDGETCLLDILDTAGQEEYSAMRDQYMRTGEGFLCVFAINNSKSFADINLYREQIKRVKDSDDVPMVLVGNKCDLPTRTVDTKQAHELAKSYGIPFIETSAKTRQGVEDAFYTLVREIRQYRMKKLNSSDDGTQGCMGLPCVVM

Row | SMILES | NRAS/KRAS (ratio of KD value with respect to NRAS to KD value with respect to KRAS) [1] | HRAS/KRAS (ratio of KD value with respect to HRAS to KD value with respect to KRAS) [2]
1 | CCC[C@H]1C(=O)N[C@@H]([C@@H](C)CC)C(=O)N2CCC[C@H]2C(=O)N(C)[C@H]2C/C=C\CCN(C2=O)[C@@H](Cc2ccc(C(F)(F)F)cc2)C(=O)N(C)CC(=O)N[C@@H](CCc2ccc(C(F)(F)F)c(OC)c2)C(=O)N2C[C@@H](C)C[C@H]2C(=O)N(C)C2(CCC2)C(=O)N(C)[C@@H](C2CCCC2)C(=O)N(C)[C@H](C(=O)N(C)C)CC(=O)N1C [PP2362] | A (a compound having 10 or more and less than 20 is denoted as A) | A (a compound having 10 or more and less than 20 is denoted as A)
2 | CCOC[C@H]1C(=O)N[C@@H]([C@@H](C)CC)C(=O)N2CCC[C@H]2C(=O)N(C)[C@H]2C/C=C\CCN(C2=O)[C@@H](Cc2ccc(C(F)(F)F)cc2)C(=O)N(C)CC(=O)N[C@@H](CCc2ccc(C(F)(F)F)c(OC)c2)C(=O)N2C[C@@H](C)C[C@H]2C(=O)N(C)C2(CCC2)C(=O)N(C)[C@@H](C2CCCC2)C(=O)N(C)[C@H](C(=O)N(C)C)CC(=O)N1C [PP2363] | A (a compound having 10 or more and less than 20 is denoted as A) | B (a compound having 3 or more and less than 10 is denoted as B)
3 | CCC[C@H]1C(=O)N[C@@H]([C@@H](C)CC)C(=O)N(C)CC(=O)N(C)[C@H]2C/C=C\CCN(C2=O)[C@@H](Cc2ccc(C)cc2)C(=O)N(C)CC(=O)N[C@@H](CCc2ccc(C(F)(F)F)c(OC)c2)C(=O)N2C[C@@H](C)C[C@H]2C(=O)N(C)C2(CCC2)C(=O)N(C)[C@@H](C2CCCC2)C(=O)N(C)[C@H](C(=O)N(C)C)CC(=O)N1C [PP2364] | A (a compound having 10 or more and less than 20 is denoted as A) | B (a compound having 3 or more and less than 10 is denoted as B)
4 | CCCOC[C@H]1C(=O)N[C@@H]([C@@H](C)CC)C(=O)N(C)CC(=O)N(C)[C@H]2C/C=C\CCN(C2=O)[C@@H](Cc2ccc(C)cc2)C(=O)N(C)CC(=O)N[C@@H](CCc2ccc(C(F)(F)F)c(OC)c2)C(=O)N2C[C@@H](C)C[C@H]2C(=O)N(C)C2(CCC2)C(=O)N(C)[C@@H](C2CCCC2)C(=O)N(C)[C@H](C(=O)N(C)C)CC(=O)N1C [PP2365] | A (a compound having 10 or more and less than 20 is denoted as A) | B (a compound having 3 or more and less than 10 is denoted as B)
5 | CCC[C@H]1C(=O)N[C@@H]([C@@H](C)CC)C(=O)N(C2CC2)CC(=O)N(C)[C@H]2C/C=C\CCN(C2=O)[C@@H](Cc2ccc(C)cc2)C(=O)N(C)CC(=O)N[C@@H](CCc2ccc(C(F)(F)F)c(OC)c2)C(=O)N2C[C@@H](C)C[C@H]2C(=O)N(C)C2(CCC2)C(=O)N(C)[C@@H](C2CCCC2)C(=O)N(C)[C@H](C(=O)N(C)C)CC(=O)N1C [PP2366] | A (a compound having 10 or more and less than 20 is denoted as A) | A (a compound having 10 or more and less than 20 is denoted as A)
6 | CCCOC[C@H]1C(=O)N[C@@H]([C@@H](C)CC)C(=O)N(C2CC2)CC(=O)N(C)[C@H]2C/C=C\CCN(C2=O)[C@@H](Cc2ccc(C)cc2)C(=O)N(C)CC(=O)N[C@@H](CCc2ccc(C(F)(F)F)c(OC)c2)C(=O)N2C[C@@H](C)C[C@H]2C(=O)N(C)C2(CCC2)C(=O)N(C)[C@@H](C2CCCC2)C(=O)N(C)[C@H](C(=O)N(C)C)CC(=O)N1C [PP2367] | A (a compound having 10 or more and less than 20 is denoted as A) | B (a compound having 3 or more and less than 10 is denoted as B)
7 | CCC[C@H]1C(=O)N[C@@H]([C@@H](C)CC)C(=O)N2CCC[C@H]2C(=O)N(C)[C@H]2C/C=C\CCN(C2=O)[C@@H](Cc2ccc(C)cc2)C(=O)N(C)CC(=O)N[C@@H](CCc2ccc(C(F)(F)F)c(OC)c2)C(=O)N2C[C@@H](C)C[C@H]2C(=O)N(C)C2(CCC2)C(=O)N(C)[C@@H](C2CCCC2)C(=O)N(C)[C@H](C(=O)N(C)C)CC(=O)N1C [PP2368] | A (a compound having 10 or more and less than 20 is denoted as A) | A (a compound having 10 or more and less than 20 is denoted as A)
8 | CCCOC[C@H]1C(=O)N[C@@H]([C@@H](C)CC)C(=O)N2CCC[C@H]2C(=O)N(C)[C@H]2C/C=C\CCN(C2=O)[C@@H](Cc2ccc(C)cc2)C(=O)N(C)CC(=O)N[C@@H](CCc2ccc(C(F)(F)F)c(OC)c2)C(=O)N2C[C@@H](C)C[C@H]2C(=O)N(C)C2(CCC2)C(=O)N(C)[C@@H](C2CCCC2)C(=O)N(C)[C@H](C(=O)N(C)C)CC(=O)N1C [PP2369] | A (a compound having 10 or more and less than 20 is denoted as A) | B (a compound having 3 or more and less than 10 is denoted as B)
9 | CCC[C@H]1C(=O)N[C@@H]([C@@H](C)CC)C(=O)N(C)CC(=O)N(C)[C@H]2C/C=C\CCN(C2=O)[C@@H](CC2CCCCC2)C(=O)N(C)CC(=O)N[C@@H](CCc2ccc(C(F)(F)F)c(OC)c2)C(=O)N2C[C@@H](C)C[C@H]2C(=O)N(C)C2(CCC2)C(=O)N(C)[C@@H](C2CCCC2)C(=O)N(C)[C@H](C(=O)N(C)C)CC(=O)N1C [PP2370] | B (a compound having 3 or more and less than 10 is denoted as B) | B (a compound having 3 or more and less than 10 is denoted as B)
10 | CCOC[C@H]1C(=O)N[C@@H]([C@@H](C)CC)C(=O)N(C)CC(=O)N(C)[C@H]2C/C=C\CCN(C2=O)[C@@H](CC2CCCCC2)C(=O)N(C)CC(=O)N[C@@H](CCc2ccc(C(F)(F)F)c(OC)c2)C(=O)N2C[C@@H](C)C[C@H]2C(=O)N(C)C2(CCC2)C(=O)N(C)[C@@H](C2CCCC2)C(=O)N(C)[C@H](C(=O)N(C)C)CC(=O)N1C [PP2371] | A (a compound having 10 or more and less than 20 is denoted as A) | B (a compound having 3 or more and less than 10 is denoted as B)
11 | CCC[C@H]1C(=O)N[C@@H]([C@@H](C)CC)C(=O)N(C2CC2)CC(=O)N(C)[C@H]2C/C=C\CCN(C2=O)[C@@H](CC2CCCCC2)C(=O)N(C)CC(=O)N[C@@H](CCc2ccc(C(F)(F)F)c(OC)c2)C(=O)N2C[C@@H](C)C[C@H]2C(=O)N(C)C2(CCC2)C(=O)N(C)[C@@H](C2CCCC2)C(=O)N(C)[C@H](C(=O)N(C)C)CC(=O)N1C [PP2372] | A (a compound having 10 or more and less than 20 is denoted as A) | B (a compound having 3 or more and less than 10 is denoted as B)
12 | CCOC[C@H]1C(=O)N[C@@H]([C@@H](C)CC)C(=O)N(C2CC2)CC(=O)N(C)[C@H]2C/C=C\CCN(C2=O)[C@@H](CC2CCCCC2)C(=O)N(C)CC(=O)N[C@@H](CCc2ccc(C(F)(F)F)c(OC)c2)C(=O)N2C[C@@H](C)C[C@H]2C(=O)N(C)C2(CCC2)C(=O)N(C)[C@@H](C2CCCC2)C(=O)N(C)[C@H](C(=O)N(C)C)CC(=O)N1C [PP2373] | A (a compound having 10 or more and less than 20 is denoted as A) | A (a compound having 10 or more and less than 20 is denoted as A)
13 | CCC[C@H]1C(=O)N[C@@H]([C@@H](C)CC)C(=O)N2CCC[C@H]2C(=O)N(C)[C@H]2C/C=C\CCN(C2=O)[C@@H](CC2CCCCC2)C(=O)N(C)CC(=O)N[C@@H](CCc2ccc(C(F)(F)F)c(OC)c2)C(=O)N2C[C@@H](C)C[C@H]2C(=O)N(C)C2(CCC2)C(=O)N(C)[C@@H](C2CCCC2)C(=O)N(C)[C@H](C(=O)N(C)C)CC(=O)N1C [PP2374] | A (a compound having 10 or more and less than 20 is denoted as A) | A (a compound having 10 or more and less than 20 is denoted as A)
14 | CCOC[C@H]1C(=O)N[C@@H]([C@@H](C)CC)C(=O)N2CCC[C@H]2C(=O)N(C)[C@H]2C/C=C\CCN(C2=O)[C@@H](CC2CCCCC2)C(=O)N(C)CC(=O)N[C@@H](CCc2ccc(C(F)(F)F)c(OC)c2)C(=O)N2C[C@@H](C)C[C@H]2C(=O)N(C)C2(CCC2)C(=O)N(C)[C@@H](C2CCCC2)C(=O)N(C)[C@H](C(=O)N(C)C)CC(=O)N1C [PP2375] | A (a compound having 10 or more and less than 20 is denoted as A) | B (a compound having 3 or more and less than 10 is denoted as B)
15 | CCC[C@H]1C(=O)N[C@@H]([C@@H](C)CC)C(=O)N(C)CC(=O)N(C)[C@H]2C/C=C\CCN(C2=O)[C@@H](CC2CCC(F)(F)CC2)C(=O)N(C)CC(=O)N[C@@H](CCc2ccc(C(F)(F)F)c(OC)c2)C(=O)N2C[C@@H](C)C[C@H]2C(=O)N(C)C2(CCC2)C(=O)N(C)[C@@H](C2CCCC2)C(=O)N(C)[C@H](C(=O)N(C)C)CC(=O)N1C [PP2376] | A (a compound having 10 or more and less than 20 is denoted as A) | A (a compound having 10 or more and less than 20 is denoted as A)
16 | CCCOC[C@H]1C(=O)N[C@@H]([C@@H](C)CC)C(=O)N(C)CC(=O)N(C)[C@H]2C/C=C\CCN(C2=O)[C@@H](CC2CCC(F)(F)CC2)C(=O)N(C)CC(=O)N[C@@H](CCc2ccc(C(F)(F)F)c(OC)c2)C(=O)N2C[C@@H](C)C[C@H]2C(=O)N(C)C2(CCC2)C(=O)N(C)[C@@H](C2CCCC2)C(=O)N(C)[C@H](C(=O)N(C)C)CC(=O)N1C [PP2377] | A (a compound having 10 or more and less than 20 is denoted as A) | A (a compound having 10 or more and less than 20 is denoted as A)
